Experimental data from publication PMC11995831, “Synthesis of Novel Isoindolinones: Carbonic Anhydrase Inhibition Profiles, Antioxidant Potential, Antimicrobial Effect, Cytotoxicity and Anticancer Activity” (Journal of Biochemical and Molecular Toxicology, 2025).
Converted amounts (≈) assume the structure as drawn. “Also recorded” adds a separate entry of the source. Values belong to the compound of their own block, whether it stands above or below them.

Columns and labels:
[1] = test system: Bacillus subtilis ATCC 6633; assay: Disc diffusion, Bacillus subtilis; conditions: for zone of inhibition at 1000 µg/mL: ATCC6633, 24 h, read-out: inhibitory zone diameter, B1 Bacillus subtilis
[2] = target: hCA II (Homo sapiens, UniProt P00918); assay: hCA II inhibition assay (esterase activity); type: biochemical; conditions: for IC50 / Ki: human erythrocyte hCA II, esterase activity
[3] = Fe3+ reducing power assay (FRAP method); conditions: absorbance at 700 nm, 30 μg/mL concentration
Experimental: The ability of the carbamate compounds to reduce was evaluated using the FRAP assay. Various concentrations of the compounds were dissolved in deionized water to a final volume of 0.2 mL in test tubes. To each tube, 500 µL of potassium […] [K3Fe(CN)6] and 500 µL of phosphate buffer (0.2 M, pH 6.6) were added. The mixture was vortexed and incubated for 20 min at 50°C. Then, 500 µL of 10% trichloroacetic acid was added, and 500 µL of the upper layer of the solution was mixed with 100 µL of 0.1% FeCl3 and 500 µL of distilled water. The absorbance of the reducing effect was recorded using a spectrophotometer at 700 nm.

[4] = test system: A549 cell line; assay: Anticancer activity, WST-1 assay in A549 cells; conditions: WST-1, 24 h exposure, 6.25-500 μg/ml
[5] = test system: L929 cells; assay: Cytotoxicity, WST-1 assay in L929 cells; type: cell-based; conditions: WST-1, 24 h exposure, 6.25-500 μg/ml
[6] = test system: Escherichia coli ATCC 43895; assay: Disc diffusion, Escherichia coli; type: cell-based; conditions: read-out: inhibitory zone diameter, B3 Escherichia coli; for zone of inhibition at 1000 µg/mL: ATCC43895, compounds at 1000 μg/mL, disc diameter 5 mm, 24 h
Experimental: All tests were conducted in triplicate.

[7] = ABTS radical cation scavenging assay; conditions: for IC50 ABTS method: ABTS radical scavenging; for antioxidant activity (in words): ABTS scavenging and Fe reduction, compared to BHT, BHA, α-tocopherol; for ABTS radical scavenging (λ734): absorbance at 734 nm, 30 μg/mL concentration
Experimental: Antioxidant capacity was determined using the ABTS radical cation scavenging method ABTS and potassium persulfate (K2S2O8) were mixed in equal proportions and incubated at room temperature to generate the radical cation. The resulting solution was diluted with ethanol, and the absorbance of the control was adjusted to 0.928 ± 0.025 at 734 nm. Different concentrations of the compounds were prepared, added to test tubes, and adjusted with 0.2 mL of ethanol. To each tube, 0.8 mL of the ABTS radical solution was added. After incubation for 30 min, the absorbance of the remaining ABTS^•+ was measured at 734 nm.

[8] = target: hCA I (Homo sapiens, UniProt P00915); assay: hCA I inhibition assay (esterase activity); type: biochemical; conditions: human erythrocyte hCA I
hCA I, sequence (P00915 whole entry, the tested form may be a part): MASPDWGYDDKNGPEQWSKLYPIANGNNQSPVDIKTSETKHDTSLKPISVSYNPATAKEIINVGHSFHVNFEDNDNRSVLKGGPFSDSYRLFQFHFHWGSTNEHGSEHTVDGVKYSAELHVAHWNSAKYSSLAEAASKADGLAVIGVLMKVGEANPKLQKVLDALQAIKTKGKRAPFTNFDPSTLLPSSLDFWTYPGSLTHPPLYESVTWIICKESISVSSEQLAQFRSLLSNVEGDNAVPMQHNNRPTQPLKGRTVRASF

[9] = test system: Staphylococcus aureus ATCC 25923; assay: Disc diffusion, Staphylococcus aureus; conditions: for zone of inhibition at 1000 µg/mL: ATCC25923, 24 h, read-out: inhibitory zone diameter, B2 Staphylococcus aureus
[10] = test system: Klebsiella pneumoniae ATCC 13883; assay: Disc diffusion, Klebsiella pneumoniae; conditions: for zone of inhibition at 1000 µg/mL: ATCC13883, 24 h, read-out: inhibitory zone diameter, B4 Klebsiella pneumonia
[11] = test system: Candida albicans ATCC 10231; assay: Disc diffusion, Candida albicans
[12] = test system: Yarrowia lipolytica ATCC 20460; assay: Disc diffusion, Yarrowia lipolytica
[13] = positive control 10 µg disc^−1, disc diameter 5 mm

Structure (SMILES): CCOS(=O)(=O)N1C(=O)c2ccccc2C1(O)c1ccccc1 (centres unmarked) [2a, Ethyl1‐hydroxy‐3‐oxo‐1‐phenylisoindoline‐2‐sulfonate]
zone of inhibition at 1000 µg/mL [1]: 7 mm | IC50 [2]: 28.84 ± 0.151 nM | Fe^3+-Fe^2+ reducing (λ700) [3]: 1.168 ± 0.058 | anticancer activity against A549 cells (in words) [4]: dose‐dependent anticancer activity; also recorded: demonstrated inhibitory effects at high doses | cell proliferation of L929 cells compared with control group (in words) [5]: increased cell proliferation | zone of inhibition at 1000 µg/mL [6]: 9 mm | IC50 ABTS method [7]: 231.00 µg/mL | antioxidant activity (in words) [7]: lowest activity | ABTS radical scavenging (λ734) [7]: 0.835 ± 0.024 | IC50 [8]: 24.3 ± 1.98 nM | Ki [8]: 22 ± 9.21 nM | zone of inhibition at 1000 µg/mL [9]: 7 mm | zone of inhibition at 1000 µg/mL [10]: 8 mm

Structure (SMILES): CCCOS(=O)(=O)N1C(=O)c2ccccc2C1(O)c1ccccc1 (centres unmarked) [2b, Propyl1‐hydroxy‐3‐oxo‐1‐phenylisoindoline‐2‐sulfonate]
zone of inhibition at 1000 µg/mL [1]: 11 mm | increase of activity on hCA II with n-propanol (2b) instead of n-butanol (2d) ([2]; 2b compared with 2d, Ki hCA II): 1.56 fold | IC50 [2]: 231 ± 1 nM | Ki [2]: 160 ± 46.6 nM | Fe^3+-Fe^2+ reducing (λ700) [3]: 1.260 ± 0.079 | zone of inhibition at 1000 µg/mL [6]: 10 mm | IC50 ABTS method [7]: 173.25 µg/mL | ABTS radical scavenging (λ734) [7]: 0.802 ± 0.072 | IC50 [8]: 42 ± 1.35 nM | Ki [8]: 49.5 ± 12.1 nM | zone of inhibition at 1000 µg/mL [9]: 8 mm | zone of inhibition at 1000 µg/mL [10]: 10 mm

Structure (SMILES): CC(C)OS(=O)(=O)N1C(=O)c2ccccc2C1(O)c1ccccc1 (centres unmarked) [2c, Isopropyl1‐hydroxy‐3‐oxo‐1‐phenylisoindoline‐2‐sulfonate]
zone of inhibition at 1000 µg/mL [1]: 16 mm | IC50 [2]: 13.02 ± 0.041 nM | Ki [2]: 9.32 ± 2.35 nM | Fe^3+-Fe^2+ reducing (λ700) [3]: 1.323 ± 0.133 | cell proliferation of L929 cells compared with control group (in words) [5]: increased cell proliferation | zone of inhibition at 1000 µg/mL [6]: 18 mm | IC50 ABTS method [7]: 40.76 µg/mL | ABTS radical scavenging (λ734) [7]: 0.549 ± 0.049 | IC50 [8]: 12.6 ± 0.37 nM | Ki [8]: 11.5 ± 4.18 nM | zone of inhibition at 1000 µg/mL [9]: 19 mm | zone of inhibition at 1000 µg/mL [10]: 17 mm

Structure (SMILES): CCCCOS(=O)(=O)N1C(=O)c2ccccc2C1(O)c1ccccc1 (centres unmarked) [2d, Butyl1‐hydroxy‐3‐oxo‐1‐phenylisoindoline‐2‐sulfonate]
zone of inhibition at 1000 µg/mL [1]: 12 mm | IC50 [2]: 86.37 ± 0.338 nM | Ki [2]: 251 ± 37.1 nM | Fe^3+-Fe^2+ reducing (λ700) [3]: 1.278 ± 0.059 | cell proliferation of L929 cells compared with control group (in words) [5]: increased cell proliferation | zone of inhibition at 1000 µg/mL [6]: 13 mm | IC50 ABTS method [7]: 99.00 µg/mL | ABTS radical scavenging (λ734) [7]: 0.719 ± 0.032 | IC50 [8]: 75.7 ± 1.21 nM | Ki [8]: 87.1 ± 35.2 nM | zone of inhibition at 1000 µg/mL [9]: 14 mm | zone of inhibition at 1000 µg/mL [10]: 12 mm

Structure (SMILES): CC(C)COS(=O)(=O)N1C(=O)c2ccccc2C1(O)c1ccccc1 (centres unmarked) [2e, Isobutyl1‐hydroxy‐3‐oxo‐1‐phenylisoindoline‐2‐sulfonate]
zone of inhibition at 1000 µg/mL [1]: 10 mm | IC50 [2]: 23.85 ± 0.152 nM | Ki [2]: 37.5 ± 14.7 nM | Fe^3+-Fe^2+ reducing (λ700) [3]: 1.316 ± 0.023 | zone of inhibition at 1000 µg/mL [6]: 14 mm | IC50 ABTS method [7]: 53.30 µg/mL | ABTS radical scavenging (λ734) [7]: 0.624 ± 0.040 | IC50 [8]: 11.8 ± 0.132 nM | Ki [8]: 33.3 ± 15.1 nM | zone of inhibition at 1000 µg/mL [9]: 13 mm | zone of inhibition at 1000 µg/mL [10]: 11 mm

Structure (SMILES): O=C1c2ccccc2C(O)(c2ccccc2)N1S(=O)(=O)OC1CCCCC1 (centres unmarked) [2f, Cyclohexyl1‐hydroxy‐3‐oxo‐1‐phenylisoindoline‐2‐sulfonate]
zone of inhibition at 1000 µg/mL [1]: 20 mm | IC50 [2]: 27.8 ± 0.17 nM | Ki [2]: 14.9 ± 3.25 nM | Fe^3+-Fe^2+ reducing (λ700) [3]: 1.485 ± 0.156 | zone of inhibition at 1000 µg/mL [6]: 25 mm | zone of inhibition at 1000 µg/mL ([11]; Candida albicans, ATCC10231, 24 h, read-out: inhibitory zone diameter, F1 Candida albicans): 19 mm | IC50 ABTS method [7]: 27.72 µg/mL | antioxidant activity (in words) [7]: highest antioxidant activity | ABTS radical scavenging (λ734) [7]: 0.426 ± 0.132 | IC50 [8]: 11.2 ± 0.291 nM | Ki [8]: 16.1 ± 4.14 nM | zone of inhibition at 1000 µg/mL [9]: 24 mm | zone of inhibition at 1000 µg/mL [10]: 22 mm | zone of inhibition at 1000 µg/mL ([12]; Yarrowia lipolytica, ATCC20460, 24 h, read-out: inhibitory zone diameter, F2 Yarrowia lipolytica): 16 mm

Structure (SMILES): CC1(C)S[C@@H]2[C@H](NC(=O)[C@H](N)c3ccccc3)C(=O)N2[C@H]1C(=O)O [Ampicillin, reference compound]
zone of inhibition at 10 µg/disc ([1]; ATCC6633, read-out: inhibitory zone diameter, B1 Bacillus subtilis): 18 mm | zone of inhibition at 10 µg/disc ([6]; ATCC43895, positive control 10 µg disc^−1, disc diameter 5 mm): 20 mm | zone of inhibition at 10 µg/disc ([9]; ATCC25923, read-out: inhibitory zone diameter, B2 Staphylococcus aureus): 21 mm | zone of inhibition at 10 µg/disc ([10]; ATCC13883, read-out: inhibitory zone diameter, B4 Klebsiella pneumonia): 19 mm

Structure (SMILES): COc1ccc(O)c(C(C)(C)C)c1 [BHA, reference compound]
Fe^3+-Fe^2+ reducing (λ700) [3]: 2.625 ± 0.241 | IC50 ABTS method [7]: 12.83 µg/mL (≈ 71.2 µM) | ABTS radical scavenging (λ734) [7]: 0.201 ± 0.040

IC50 ABTS method [7]: 16.11 µg/mL (≈ 73.1 µM)
Structure (SMILES): Cc1cc(C(C)(C)C)c(O)c(C(C)(C)C)c1 [BHT, reference compound]
Fe^3+-Fe^2+ reducing (λ700) [3]: 2.510 ± 0.111 | ABTS radical scavenging (λ734) [7]: 0.293 ± 0.094

Structure (SMILES): C[C@@H]1[C@H](O)[C@@H](C)/C=C/C=C/CC/C=C/C=C/C=C/C=C/C(O[C@H]2O[C@H](C)[C@@H](O)[C@H](N)[C@@H]2O)CC2O[C@](O)(CC(O)C(O)CCC(O)CC(O)CC(O)CC(=O)O[C@H]1C)CC(O)C2C(=O)O (some centres unmarked) [Nystatin, reference compound]
inhibitory zone diameter, F1 Candida albicans [11, 13]: 18 mm | inhibitory zone diameter, F2 Yarrowia lipolytica [12, 13]: 15 mm

IC50 ABTS method [7]: 18.23 µg/mL (≈ 42.3 µM)
Structure (SMILES): Cc1c(C)c2c(c(C)c1O)CC[C@@](C)(CCC[C@H](C)CCC[C@H](C)CCCC(C)C)O2 [α‐Tokoferol, α‐tocopherol, reference compound]
Fe^3+-Fe^2+ reducing (λ700) [3]: 1.465 ± 0.284 | ABTS radical scavenging (λ734) [7]: 0.319 ± 0.101
